Test results as given in paper PMC4795541, “A Rapid and Quantitative Flow Cytometry Method for the Analysis of Membrane Disruptive Antimicrobial Activity” (PLoS ONE, 2016).
Marks after values point to notes of the source that are not given here. Where a SMILES comes first, the peptide text is derived from it. Where no end group is shown, it is not given here. [ ]: non-standard residue; d: D form. Phe(ol) = N[C@H](CO)Cc1ccccc1; Dab = NCC[C@H](N)C(=O)O; Dap = NC[C@H](N)C(=O)O; Aib = CC(C)(N)C(=O)O

Legend:
F. nucleatum ATCC 25586 = experiment: MDC, flow cytometry Syto9/PI membrane disruption assay; format: cell-based, Fusobacterium nucleatum; conditions: for MDC: F. nucleatum ATCC 25586, 90 min peptide/bacteria incubation, Syto9/PI flow cytometry, extrapolated to 100% PI+ cells, average of 3 assays ± SD; for Antimicrobial activity (MDC50): against F. nucleatum, maximum peptide concentration = 1000 µM
From the text: We reasoned that as AMPs disrupt the cytoplasmic membrane we should be able to monitor this disruption using membrane permeable/impermeable fluorescent intercalating DNA dyes that are used to determine the viability of a microbial culture. We initially synthesised melittin (peptide sequence shown in S1 Table) a well characterised, broad-spectrum and potent AMP to investigate whether viability dyes, Syto9 (membrane permeable) and propidium iodide (PI, membrane impermeable), could be used to determine AMP activity, against the melittin-susceptible bacterium Fusobacterium nucleatum. […] Staining cells with 0.1% v/v Syto 9 in 0.9% […] (3.34mM stock solution) and 0.1% v/v PI in saline (50μg/mL stock solution) provided optimal concentrations that gave consistent and distinct cell populations; a membrane intact (Syto9+/PI-) and two membrane disrupted populations (Syto9+/PI+ and Syto9-/PI+; S1 Fig). […] Following from this we then incubated F. nucleatum with variant melittin concentrations and determined the proportion of membrane intact (Syto9+/PI-) and membrane disrupted (PI+ i.e. Syto9+/PI+ and Syto9-/PI+) populations. […] Linear regression of the PI+ values for the peptide concentrations prior to full membrane disruption (% PI+ cells ≤ 99% and ≥ 1–5%) gave an R^2 value of >0.9 and from extrapolation the minimum peptide concentration that induced 100% membrane disruption (MDC) could be determined (Fig 1c, insert). […] Melittin and magainin II are known to have high and low activities against the Gram positive bacterium Streptococcus mutans, respectively. […] Although the standard procedure is a 90 minute incubation of bacteria and AMP, we investigated whether the incubation time could be shortened.
For determination of MDC a 50 μL aliquot of the bacteria/AMP was mixed with 100 μL of 0.9% w/v saline containing 0.1% v/v of SYTO® 9 (3.34mM stock solution) and 0.1% v/v of PI (50μg/mL stock solution) and incubated for 10 minutes at room temperature in the dark. Following incubation the bacterial cell samples were analysed using a Cell Lab Quanta SC MPL flow cytometer (Beckman Coulter) equipped with a 100 W stabilized mercury arc lamp with wavelengths of 365, 404, and 435 nm, and a 488 nm diode laser. The fluorescence from SYTO® 9 was measured through a 525-nm band-pass filter (Fluorescent Channel 1, FL-1), and the red emission of PI was measured with a 670-nm long pass filter (Fluorescent Channel 3, FL-3). A minimum of 100,000 bacterial events were collected and the multi-parametric data analyzed using the Cell Lab Quanta SC software. NB for flow cytometers not fitted with an electrical volume detector for cell counting, the addition of microbeads to the samples can be used to determine cell numbers. MDC was calculated by plotting the percent PI+ cells for the each peptide concentration and fitting a linear curve to the data that is ≤ 99% PI+ cells and ≥ 1–5% PI+ cells (minimum of 4 data points). Inclusion of data points outside of these PI+ cell percentages will result in a positive or negative skewing of the MDC value. By solving the line equation (y = mx + C) for x (peptide concentration) when y = 1 (where 1 = 100% of PI+ cells) the MDC (x) can be determined i.e. MDC = x = (y − C)/m.

[1] = test system: HEK-293 (ATCC CRL-1573) cells; experiment: Inhibition of cell proliferation assay (MTS); format: cell-based; conditions: for IC50: HEK-293 cells 5×10^3, EMEM + 10% FBS, 28 h, MTS, A490, linear regression, maximum peptide concentration = 1000 µM; for Therapeutic Index (proliferation): IC50/MDC50 (F. nucleatum), given as x : 1
Method: After 28 h, 20 μL of 3-(4,5-dimethylthiazol-2-yl)-5-(3-carboxymethoxyphenyl)-2-(4-sulfophenyl)-2H-tetrazolium (MTS) solution (CellTiter 96 AQueous Non-Radioactive Cell Proliferation Assay kit, Promega) were added to each well and the plates were incubated for a further 1–2 h at 37°C, 5% CO2 incubator. Cell proliferation was determined by measuring absorbance at 490 nm using a microplate reader (PerkinElmer 1420 Multilabel Counter VICTOR3). Positive and negative controls for inhibition were taken as HEK-293 cells incubated with mytomycin C (5 μg/mL, Sigma Pty Ltd) and HEK-293 cells incubated in media alone, respectively. The percentage of inhibition was calculated using the following formula: % Inhibition = [(A490 test sample—A490 negative control) / (A490 positive control—A490 negative control)] × 100
The percentage of inhibition was plotted against peptide concentration and linear regression analysis was used to determine the AMP concentration needed to inhibit 50% (IC50) of the HEK-293 cells.

Compound | MDC (F. nucleatum ATCC 25586) | IC50 [1] [µM] | Therapeutic Index (proliferation) [1] | Antimicrobial activity (MDC50) (F. nucleatum ATCC 25586) [µM]
CC(=O)NC(C)(C)C(=O)N1CCC[C@H]1C(=O)NC(C)(C)C(=O)N[C@@H](C)C(=O)NC(C)(C)C(=O)N[C@@H](C)C(=O)N[C@@H](CCC(N)=O)C(=O)NC(C)(C)C(=O)N[C@H](C(=O)NC(C)(C)C(=O)NCC(=O)N[C@@H](CC(C)C)C(=O)NC(C)(C)C(=O)N1CCC[C@H]1C(=O)N[C@H](C(=O)NC(C)(C)C(=O)NC(C)(C)C(=O)N[C@@H](CCC(=O)O)C(=O)N[C@@H](CCC(N)=O)C(=O)N[C@H](CO)Cc1ccccc1)C(C)C)C(C)C [Alamethicin] (Ac-[Aib]P[Aib]A[Aib]AQ[Aib]V[Aib]GL[Aib]PV[Aib][Aib]EQ[Phe(ol)]; N-terminus assumed) | 21.1 ± 4.1 µM |  |  | 
CC[C@H](C)[C@H](NC(=O)CN)C(=O)NCC(=O)N[C@@H](CCN)C(=O)N[C@@H](Cc1ccccc1)C(=O)N[C@@H](CC(C)C)C(=O)N[C@@H](Cc1c[nH]cn1)C(=O)N[C@@H](CO)C(=O)N[C@@H](C)C(=O)N[C@@H](CCN)C(=O)N[C@@H](CCN)C(=O)N[C@@H](Cc1ccccc1)C(=O)NCC(=O)N[C@@H](CCN)C(=O)N[C@@H](C)C(=O)N[C@@H](Cc1ccccc1)C(=O)N[C@H](C(=O)NCC(=O)N[C@@H](CCC(=O)O)C(=O)N[C@H](C(=O)N[C@@H](CCSC)C(=O)N[C@@H](CC(N)=O)C(=O)N[C@@H](CO)C(N)=O)[C@@H](C)CC)C(C)C [Magainin-Dab] (H-GIG[Dab]FLHSA[Dab][Dab]FG[Dab]AFVGEIMNS-NH2; N-terminus assumed) | 11.0 ± 1.0 µM | 178 ± 39.4 | 32.4 : 1 | 5.5 ± 0.5
CC[C@H](C)[C@H](NC(=O)CN)C(=O)NCC(=O)N[C@@H](CN)C(=O)N[C@@H](Cc1ccccc1)C(=O)N[C@@H](CC(C)C)C(=O)N[C@@H](Cc1c[nH]cn1)C(=O)N[C@@H](CO)C(=O)N[C@@H](C)C(=O)N[C@@H](CN)C(=O)N[C@@H](CN)C(=O)N[C@@H](Cc1ccccc1)C(=O)NCC(=O)N[C@@H](CN)C(=O)N[C@@H](C)C(=O)N[C@@H](Cc1ccccc1)C(=O)N[C@H](C(=O)NCC(=O)N[C@@H](CCC(=O)O)C(=O)N[C@H](C(=O)N[C@@H](CCSC)C(=O)N[C@@H](CC(N)=O)C(=O)N[C@@H](CO)C(N)=O)[C@@H](C)CC)C(C)C [Magainin-Dap] (H-GIG[Dap]FLHSA[Dap][Dap]FG[Dap]AFVGEIMNS-NH2; N-terminus assumed) | 29.8±6.9^c μM | 285 ± 19.4 | 19.1 : 1 | 14.9 ± 3.5
GIGKFLHSAKKFGKAFVGEIMNS-NH2 [Magainin II] |  | 95.2 ± 32.2 | 20.2 : 1 | 
GIGRFLHSARRFGRAFVGEIMNS-NH2 [Magainin-Arg] | 4.9±0.2^c μM | 64.5 ± 3 | 25.8 : 1 | 2.5 ± 0.1
GIGXFLHSAXXFGXAFVGEIMNS-CONH2 [Magainin-Orn, magainin II analogue, all lysine residues substituted with ornithine] | 11.4 ± 0.3 µM | 168 ± 42.1 | 29.4 : 1 | 5.7 ± 0.2
